Earlier results on 1 molecule are cited in PubChem BioAssay AID1259409 (Chemical Carcinogenesis Research Information System (CCRIS), 2018).

This data set has as its system rodent chemically induced tumor inhibition, incidence and multiplicity. Put plainly: CCRIS tumor inhibitor studies. As to conditions: Species: MOUSE.

On to `O=c1c(O)c(-c2ccc(O)c(O)c2)oc2cc(O)cc(O)c12`, for which the “tumour outcome (control, treated, inhibition, significance)” value by setting is: (Carcinogen: 7,12-DIMETHYLBENZ[A]ANTHRACENE, 57-97-6, Dose [Inhibitor]: 30 UMOL IN 100 µL ACETONE/DIMETHYL SULFOXIDE (4/1, V/V) 2/WK 40 MINUTES BEFORE AND CONCURRENTLY WITH EACH PROMOTER TREAT, Route [Inhibitor]: DERMAL, Strain/Sex: ICR/FEMALE, Target Tissue: Type of Lesion: SKIN: PAPILLOMA, Dose [Carcinogen]: 100 UG IN 100 µL ACETONE ONCE, Promoter: TELEOCIDIN, 78474-55-2) 80%, 30%, 63%, not calculated; (Carcinogen: 7,12-DIMETHYLBENZ[A]ANTHRACENE, 57-97-6, Dose [Inhibitor]: 100 UG IN 0.2 ML ACETONE ONCE 5 MIN BEFORE CARCINOGEN TREATMENT (STUDY DURATION: 31 WK), Route [Inhibitor]: DERMAL, Strain/Sex: CD-1/FEMALE, Target Tissue: Type of Lesion: SKIN: PAPILLOMA, Dose [Carcinogen]: 10 NMOL IN 0.2 ML ACETONE ONCE, Promoter: 12-O-TETRADECANOYLPHORBOL-13-ACETATE, 16561-29-8) 87%, 70%, 20%, not calculated; (Carcinogen: (+/-)-7BETA,8ALPHA-DIHYDROXY-9ALPHA,10ALPHA-EPOXY-7,8,9,10- TETRAHYDROBENZO[A]PYRENE, 58917-67-2, Dose [Inhibitor]: 3000 NMOL IN 0.2 ML ACETONE 1/D FOR 7 D (STUDY DURATION: 18 WK), Route [Inhibitor]: DERMAL, Strain/Sex: SENCAR/FEMALE, Target Tissue: Type of Lesion: SKIN: TUMOR, Dose [Carcinogen]: 200 NMOL IN 0.2 ML ACETONE ONCE 30 MIN POST LAST CARCINOGEN DOSE, Promoter: 12-O-TETRADECANOYLPHORBOL-13-ACETATE, 16561-29-8) 75%, 65%, 13%, not significant; (Carcinogen: (+/-)-7BETA,8ALPHA-DIHYDROXY-9ALPHA,10ALPHA-EPOXY-7,8,9,10-TETRAHYDROBENZO[A]PYR ENE, 58917-67-2, Dose [Inhibitor]: 0, 1400 NMOL (TOTAL DOSE) APPLIED 10 MIN PRIOR TO CARCINOGEN DOSE INJECTED AS 1/7, 2/7, AND 4/7 OF THE TOTAL ON DAYS 1,, Route [Inhibitor]: INTRAPERITONEAL, Strain/Sex: ICR/MALE,FEMALE, Target Tissue: Type of Lesion: LUNG: TUMOR, Dose [Carcinogen]: 30 NMOL (TOTAL DOSE) INJECTED IN DOSES OF 1/7, 2/7, AND 4/7 ON DAYS 1, 8, AND 15 OF LIFE, RESPECTIVELY, Promoter: NONE USED) 93%, 81%, 13%, not significant; (Carcinogen: (+/-)-7BETA,8ALPHA-DIHYDROXY-9ALPHA,10ALPHA-EPOXY-7,8,9,10-TETRAHYDROBENZO[A]PYR ENE, 58917-67-2, Dose [Inhibitor]: 0, 2500 NMOL IN 200 µL ACETONE:DMSO (90:10) ONCE APPLIED 5 MIN PRIOR TO CARCINOGEN DOSE (STUDY DURATION: 21 WK), Route [Inhibitor]: DERMAL, Strain/Sex: CD-1/FEMALE, Target Tissue: Type of Lesion: SKIN: TUMOR, Dose [Carcinogen]: 200 NMOL IN ACETONE:DMSO (90:10) ONCE, Promoter: 12-O-TETRADECANOYLPHORBOL-13-ACETATE, 16561-29-8) 59%, 69%, -17%, not significant; (Carcinogen: AZOXYMETHANE, 25843-45-2, Dose [Inhibitor]: 0, 0.1% IN DIET FOR DURATION OF STUDY (STUDY DURATION: 48 WK), Route [Inhibitor]: ORAL, Strain/Sex: CF-1/FEMALE, Target Tissue: Type of Lesion: COLON: TUMOR, Dose [Carcinogen]: 10 MG/KG BW 3 TIMES, Promoter: NONE USED) 8/32 (25%), 5/32 (16%), 36%, not significant. Moreover, the “tumour outcome (control, treated, inhibition, significance)” value is, setting by setting: (Carcinogen: AZOXYMETHANE, 25843-45-2, Dose [Inhibitor]: 0, 0.5% IN DIET FOR DURATION OF STUDY (STUDY DURATION: 48 WK), Route [Inhibitor]: ORAL, Strain/Sex: CF-1/FEMALE, Target Tissue: Type of Lesion: COLON: TUMOR, Dose [Carcinogen]: 10 MG/KG BW 3 TIMES, Promoter: NONE USED) 8/32 (25%), 7/35 (20%), 20%, not significant; (Carcinogen: AZOXYMETHANE, 25843-45-2, Dose [Inhibitor]: 0, 2% IN DIET FOR DURATION OF STUDY (STUDY DURATION: 48 WK), Route [Inhibitor]: ORAL, Strain/Sex: CF-1/FEMALE, Target Tissue: Type of Lesion: COLON: TUMOR, Dose [Carcinogen]: 10 MG/KG BW 3 TIMES, Promoter: NONE USED) 8/32 (25%), 2/34 (6%), 76%, p=0.003; (Carcinogen: BENZO[A]PYRENE, 50-32-8, Dose [Inhibitor]: 0, 1400 NMOL (TOTAL DOSE) APPLIED 10 MIN PRIOR TO CARCINOGEN DOSE INJECTED AS 1/7, 2/7, AND 4/7 OF THE TOTAL ON DAYS 1,, Route [Inhibitor]: INTRAPERITONEAL, Strain/Sex: ICR/MALE,FEMALE, Target Tissue: Type of Lesion: LUNG: TUMOR, Dose [Carcinogen]: 450 NMOL (TOTAL DOSE) INJECTED IN DOSES OF 1/7, 2/7, AND 4/7 ON DAYS 1, 8, AND 15 OF LIFE, RESPECTIVELY, Promoter: NONE USED) 73%, 68%, 7%, not significant; (Carcinogen: BENZO[A]PYRENE, 50-32-8, Dose [Inhibitor]: 0, 2500 NMOL IN 200 µL ACETONE:DMSO (90:10) ONCE APPLIED 5 MIN PRIOR TO CARCINOGEN DOSE (STUDY DURATION: 21 WK), Route [Inhibitor]: DERMAL, Strain/Sex: CD-1/FEMALE, Target Tissue: Type of Lesion: SKIN: TUMOR, Dose [Carcinogen]: 50 NMOL IN ACETONE:DMSO (90:10) ONCE, Promoter: 12-O-TETRADECANOYLPHORBOL-13-ACETATE, 16561-29-8) 50%, 45%, 10%, not significant; (Carcinogen: BENZO[A]PYRENE, 50-32-8, Dose [Inhibitor]: 0, 12500 NMOL IN 200 µL ACETONE:DMSO (90:10) ONCE APPLIED 5 MIN PRIOR TO CARCINOGEN DOSE (STUDY DURATION: 21 WK), Route [Inhibitor]: DERMAL, Strain/Sex: CD-1/FEMALE, Target Tissue: Type of Lesion: SKIN: TUMOR, Dose [Carcinogen]: 50 NMOL IN ACETONE:DMSO (90:10) ONCE, Promoter: 12-O-TETRADECANOYLPHORBOL-13-ACETATE, 16561-29-8) 50%, 55%, -10%, not significant; (Carcinogen: BENZO[A]PYRENE, 50-32-8, Dose [Inhibitor]: 25 MG IN 0.1 ML DMSO 3/WK ADMINISTERED SIMULTANEOUSLY WITH CARCINOGEN FOR DURATION OF STUDY (STUDY DURATION: 368 D), Route [Inhibitor]: DERMAL, Strain/Sex: ICR/FEMALE, Target Tissue: Type of Lesion: SKIN: SQUAMOUS CARCINOMA, Dose [Carcinogen]: 5 UG IN 0.1 ML DMSO THAT ALSO CONTAINED AGENT 3/WK FOR DURATION OF STUDY, Promoter: NONE USED) 6/50 (12%), 0/50 (0%), 100%, not calculated.
